For 122 compounds, melting point results are on record in a melting point compilation (Tetko et al.).

One may read the melting point as the temperature of the solid-liquid transition.

The compound `O=C1CC2(CCOC2)CN1` (configuration not stated) gave a melting point of 63 to 65 °C.

Compound `CC(C)(C)c1ccc(C(=O)O)cc1[N+](=O)[O-]` had a melting point of 156 to 158 °C.

The compound `COc1cc(Cl)c(C(=O)O)cc1OC` registered a melting point of 179 to 181 °C. Compound `O=C(O)C(Cc1ccccc1)NC(=O)C(c1ccccc1)c1ccccc1` (configuration not stated) gave a melting point of 149 to 151 °C.

On to `CC(C)c1cc(NC(=O)CCl)on1`, for which the melting point was in the range of 75 to 77 °C.

In the case of `O=C(O)CCCn1c(=O)oc2ccccc21`, the melting point lay in the range of 141 to 143 °C. To `Oc1cccc2cn[nH]c12` belongs 181 to 183 °C; to `O=C(O)C(=O)NCCCc1ccccc1`, 120 to 122 °C; to `COc1ccc(-c2nnc(N)o2)cc1OC`, 235 to 237 °C.

Turning to `CON(C)S(=O)(=O)c1cc(N)ccc1Cl`, the melting point is 88 to 90 °C.

`CCCc1cc(=O)c2cc(Oc3ccccc3)ccc2[nH]1` registered a melting point of 207 to 209 °C. To `COC(=O)c1ccc(-c2ccc(C(=O)O)cc2)cc1` belongs 300 to 302 °C; to `Cc1cc(N)n(CCO)n1`, 48 to 52 °C. With `O=C(O)Cc1cccc(OCc2ccccc2Cl)c1` the figure was 64 to 66 °C. With `CCC(C(=O)O)N1CCCC1=O` (configuration not stated) the figure was 156 to 158 °C; with `Cc1ccc2nc3ccccc3c(Cl)c2c1`, 121 to 123 °C. For `CCc1ccnc(C(=O)O)c1`, the melting point is 109 to 111 °C. To `CS(=O)(=O)Nc1ccccc1CC(=O)O` belongs 126 to 128 °C; to `Nc1cnc(-c2ccccc2)nc1`, 81 to 83 °C. With `O=C(O)C1CCN(c2ccc3c(c2)OCCO3)C1=O` (configuration not stated) the figure was 122 to 124 °C. To `Oc1nc(O)c2c(n1)CCC2` belongs 324 to 326 °C.

The compound `CC1(c2ccc([N+](=O)[O-])cc2)NC(=O)NC1=O` (configuration not stated) yielded a melting point of 235 to 237 °C. With `OCCOc1cncc(Br)c1` the figure was 51 to 53 °C; with `CC(C)(C)OC(=O)N1CCCC(C#N)C1` (configuration not stated), 64 to 66 °C; with `O=C(O)c1csc(-c2ccccc2)c1`, 184 to 186 °C. With `O=C(Nc1ccsc1C(=O)O)c1ccoc1` the figure was 207 to 209 °C; with `O=C(O)C1=NOC(c2ccccc2)C1` (configuration not stated), 102 to 104 °C; with `CC(C)(C)n1ccnc1S`, 192 to 194 °C.

Turning to `COC(=O)c1c(-c2ccc(F)cc2)csc1N`, the melting point lay within 135 to 137 °C.

As to `Cc1nn(-c2ccc(F)cc2)c(C)c1CC(=O)O`, the melting point was 171 to 173 °C. To `NCCCNC(=O)c1cccc(O)c1` belongs 136 to 138 °C; to `OCc1ccc(Br)cc1Cl`, 70 to 72 °C.

Compound `COc1ccc(C)cc1-n1nnnc1S` showed a melting point of 164 to 166 °C. With `Nc1ccccc1S(=O)(=O)C(F)(F)F` the figure was 47 to 49 °C; with `O=C1COc2ccc(C(=O)CBr)cc2N1`, 190 to 192 °C; with `N#Cc1ccccc1COc1ccc(C(=O)O)cc1`, 211 to 213 °C.

Turning to `Cc1cc(OCC(=O)O)ccc1Cl`, the melting point was 180 to 182 °C. With `COC(=O)c1ccc(-c2noc(CC(C)(C)C)n2)cc1` the figure was 114 to 116 °C; with `CC(C)(C)OC(=O)N1C[C@H](C(=O)O)[C@@H](C(F)(F)F)C1`, 117 to 119 °C. With `CCCCn1c(N)c(NC2CCCC2)c(=O)[nH]c1=O` the figure was 250 to 252 °C. With `O=C(O)CCCC(=O)Nc1cccnc1N1CCCC1` the figure was 142 to 144 °C. On to `N#CCC(=O)NC1CCCC1`, for which the melting point lay in the range of 92 to 94 °C.

`Cc1cccc(Cn2[nH]ccc2=NC(=O)CCl)c1`: the melting point lay in the range of 88 to 90 °C. Regarding `CC(C)Cn1c(N)c(C(=O)CCl)c(=O)n(C)c1=O`, the melting point is 104 to 106 °C. With `NC(=O)Cc1cc(Br)c(-c2ccc(N)cc2)s1` the figure was 189 to 191 °C.

Regarding `O=C(NCc1cccc(Br)c1)NC1(C(=O)O)CCCC1`, the melting point lay within 170 to 172 °C.

As to `NS(=O)(=O)Cc1ccc(Br)cc1`, the melting point fell in the range of 191 to 193 °C. With `O=C(O)c1cc(F)c(F)cc1C(=O)O` the figure was 158 to 160 °C. To `O=C(O)CS(=O)(=O)c1cccc(Br)c1` belongs 139 to 141 °C; to `COc1ccc(OC)c(CBr)c1`, 77 to 79 °C. To `COC(=O)c1ccc2[nH]c(=O)[nH]c2c1` belongs 303 to 305 °C; to `CCCCCc1sc(N)c(C(N)=O)c1C`, 129 to 131 °C; to `S=C1Nc2ccccc2C2CC=NN12` (configuration not stated), 249 to 251 °C. `CC1CNC(=O)N1c1cccc(N)c1` (configuration not stated) gave a melting point of 169 to 171 °C. To `COC(=O)C(C)(O)c1ccncc1` (configuration not stated) belongs 104 to 106 °C. With `Cc1nc2nc(S)nn2c(C)c1CC(=O)O` the figure was 226 to 228 °C; with `CCN(c1ccccc1)S(=O)(=O)c1ccc(Cl)nc1`, 81 to 83 °C; with `CCN1CCN(c2ccc(C(C)=O)cc2F)CC1`, 68 to 70 °C.

`Cc1cccc(NC(=O)CSCC(=O)O)c1`: the melting point was in the range of 200 to 206 °C.

`Cn1cc(S(=O)(=O)NCC(=O)O)cn1` gave a melting point of 201 to 203 °C. With `O=C(O)CCNc1nccs1` the figure was 171 to 173 °C. With `NC(=S)Cc1nccn1Cc1ccccc1` the figure was 131 to 133 °C. In turn, `CC(C)c1nc2ccccc2n1CC#N` displayed a melting point of 116 to 118 °C.

`Cc1ccc(Cc2nnc(N)s2)cc1` displayed a melting point of 209 to 211 °C. Compound `Cc1ccnc(-n2cc(S(=O)(=O)Cl)cn2)c1` displayed a melting point of 104 to 106 °C.

Turning to `O=C(O)c1ccc(Cl)[nH]c1=O`, the melting point lay in the range of 224 to 226 °C.

For the compound `O=C(O)c1ccc(Sc2ccc(Cl)cc2)o1`, the melting point was in the range of 161 to 163 °C. As to `Cc1ccc(NS(=O)(=O)c2cccc(C(=O)O)c2)cc1`, the melting point lay in the range of 203 to 205 °C. With `Cc1ccc(S(=O)(=O)Cl)cc1C` the figure was 36 to 38 °C; with `O=C(O)c1nn(-c2cccc(Cl)c2)cc1O`, 235 to 237 °C; with `COCc1c(C(=O)O)sc2ccccc12`, 159 to 161 °C.

Turning to `Cc1ccc(NC(N)=S)cc1C`, the melting point fell in the range of 184 to 186 °C. To `CCc1ccc(C(=O)CCl)s1` belongs 52 to 54 °C; to `COC(=O)c1ccc(-c2nc(C3CC3)no2)cc1`, 100 to 102 °C; to `Cn1c(C(=O)O)c(Br)c2ccccc21`, 204 to 206 °C. With `Nc1nc(CC(=O)c2ccccc2)cs1` the figure was 157 to 159 °C; with `Brc1cncc(-c2ncc[nH]2)c1`, 189 to 191 °C. `O=C(O)C(Cc1ccccc1)NS(=O)(=O)c1ccccc1F` (configuration not stated) came in with a melting point of 258 to 260 °C.

Compound `NCCC(=O)N1CCN(c2ccccn2)CC1` had a melting point of 76 to 78 °C.

In turn, `Cc1nn(-c2cccc(C(F)(F)F)c2)c(C)c1C(=O)C(=O)O` returned a melting point of 191 to 193 °C.

`Nc1cccc(C(=O)Nc2ccccn2)c1` displayed a melting point of 111 to 113 °C.

For the compound `Cc1onc(-c2ccncc2)c1C(=O)O`, the melting point fell in the range of 249 to 251 °C. To `O=C(Nc1sccc1C(=O)O)c1ccc2c(c1)CCC2` belongs 214 to 216 °C; to `O=C(CCl)Nc1ccc(Cl)cn1`, 142 to 144 °C. With `FC(F)(F)c1ccc(OCc2ccc(Cl)nc2)cc1` the figure was 106 to 108 °C.

Consider `O=C(O)c1ccc[nH]1`, for which the melting point was in the range of 204 to 208 °C. To `O=c1[nH]c(-c2cccc(C(F)(F)F)c2)cs1` belongs 182 to 184 °C; to `O=c1[nH]c(CN2CCNCC2)nc2ccccc12`, 167 to 169 °C; to `Cn1ccnc1C(=O)c1ccccc1Cl`, 99 to 101 °C. To `CC(=O)c1cc(Br)sc1C` belongs 41 to 43 °C. To `Nc1cc(Br)ccc1I` belongs 49 to 51 °C. Turning to `c1c[nH]c(C2CCNCC2)n1`, the melting point is 176 to 178 °C.

`O=C(O)c1ccc(Oc2cccc(Br)c2)nc1` registered a melting point of 154 to 156 °C. To `CS(=O)(=O)c1ccc(N)cc1` belongs 132 to 134 °C.

In turn, `Nc1cc2c(cc1N)OCCO2` showed a melting point of 124 to 126 °C. For `CC(=CC(=O)O)c1ccccc1C(F)(F)F`, the melting point was in the range of 133 to 135 °C. The compound `COc1cccc(C(N)=O)c1O` displayed a melting point of 155 to 157 °C. With `CCc1ccc(C(=O)O)cc1[N+](=O)[O-]` the figure was 158 to 160 °C. With `CN(C)CCOc1ccc(C(N)=S)cc1` the figure was 142 to 144 °C; with `c1cn(-c2cncnc2)cn1`, 129 to 131 °C.

`O=S(=O)(c1cccc(-c2nnc(S)n2-c2ccc(OC(F)(F)F)cc2)c1)N1CCOCC1` had a melting point of 247 to 249 °C.

For the compound `O=C(O)COc1ccc(Cl)cc1C1CCCCC1`, the melting point lay within 167 to 169 °C.

In turn, `Cc1c(N)cccc1-n1cnnn1` showed a melting point of 124 to 126 °C. To `Cc1cc(C)c(C(N)=O)c(S)n1` belongs 167 to 170 °C; to `Nc1ccc2c(c1)N1CCN=C1S2`, 201 to 204 °C.

`O=C(O)C1=NN(Cc2ccc(F)cc2)C(=O)CC1` returned a melting point of 190 to 192 °C. To `Cn1cc(C=O)c(-c2ccncc2)n1` belongs 131 to 133 °C. To `NS(=O)(=O)c1c[nH]cn1` belongs 232 to 234 °C; to `NS(=O)(=O)c1ccc(C(=O)O)c(F)c1`, 189 to 191 °C. With `CC1=NN(CC(C)C)C(=O)C1` the figure was 124 to 126 °C. For the compound `Cc1nc2ncnn2c(C)c1CCC(=O)O`, the melting point is 224 to 226 °C. Turning to `Cc1ccccc1CC(N)=NO`, the melting point lay within 121 to 123 °C. With `Cn1cc(C(=O)O)c(-c2ccc(N)cc2)n1` the figure was 226 to 228 °C.

Turning to `Cn1ccnc1CN1CCC(C(=O)O)CC1`, the melting point fell in the range of 173 to 175 °C.

`CC1CN(C(CN)c2c(F)cccc2F)CC(C)O1` (configuration not stated) came in with a melting point of 59 to 61 °C. Consider `CC(C)S(=O)(=O)c1ccc(CCl)cc1`, for which the melting point was in the range of 69 to 71 °C.

Compound `Clc1ccc2ccc(Cl)c(Cl)c2n1` yielded a melting point of 123 to 125 °C. With `Cc1ccsc1C(=O)Nc1ccc2c(c1)CCCN2` the figure was 135 to 137 °C; with `NC1=NC(=O)c2ccccc21`, 208 to 210 °C. To `O=S1(=O)CCC(Br)CC1` belongs 127 to 129 °C.

Turning to `O=C(O)c1cccc(CS)c1`, the melting point fell in the range of 104 to 106 °C.

In turn, `O=C1Cc2cc(Br)c(Cl)cc2N1` showed a melting point of 219 to 221 °C.
